The record followed here is ChEMBL document CHEMBL3217501, “Synthesis and biological evaluation of tetrazole containing compounds as possible anticancer agents” (Medchemcomm, 2011).

One test relates to HepG2. As to the kind of experiment: Cytotoxicity against human HepG2 cells assessed as growth inhibition after 48 hrs by SRB assay. The test is classed as functional, cell-based. To be noted: HepG2, 48 h.
For a further test, the system named is A549. As to the kind of experiment: Cytotoxicity against human A549 cells assessed as growth inhibition after 48 hrs by SRB assay. To be noted: A549, 48 h. In kind it is functional, cell-based.
The subject of another test is MDA-MB-231. As to the kind of experiment: Cytotoxicity against human MDA-MB-231 cells assessed as growth inhibition after 48 hrs by SRB assay. In kind it is functional, cell-based. The settings on record: MDA-MB-231, 48 h.
A further test relates to DU-145. As to the kind of experiment: Cytotoxicity against human DU145 cells assessed as growth inhibition after 48 hrs by SRB assay. To be noted: DU-145, 48 h. The test is classed as functional, cell-based.
Another test concerns SK-N-SH. Briefly: Cytotoxicity against human SK-N-SH cells assessed as growth inhibition after 48 hrs by SRB assay. The test is classed as functional, cell-based.
For test [1], the system named is Calf thymus DNA. As to the kind of experiment: Binding affinity to calf thymus DNA assessed as compound-DNA complex formation by UV-Vis absorption spectroscopic analysis. The test is classed as nucleic-acid assay. The settings on record: Bos taurus.
The subject of test [2] is Calf thymus DNA. Briefly: Binding affinity to calf thymus DNA by fluorescence spectroscopic analysis. The test is classed as nucleic-acid assay. The settings on record: Bos taurus.

Calls of active or inactive are those of the source. The calls are words filed in the database; no cut-off is given here. A value given as a limit tells only on which side of the number the result lay.

For `N#C/C(=C\c1ccccc1)Cn1cnnn1`, the IC50 in the test on HepG2 was found to be 5.83 µM; with A549, 9.99 µM; in the test on MDA-MB-231, 18.4 µM; in the test with DU-145, 9.45 µM; in the test on SK-N-SH it was 23.3 µM.
On the same counts, the results for `COC(=O)/C(=C/c1ccc([N+](=O)[O-])cc1)Cn1cnnn1` are 2.07 µM, 2.84 µM, 9.14 µM, 5.5 µM and 22.3 µM.
On the same counts, the results for `N#C/C(=C\c1ccc(C(F)(F)F)cc1)Cn1cnnn1` are 1.65 µM, 3.51 µM, 8.7 µM, 5.92 µM and 11.8 µM.
On the same counts, the results for `COc1cc([C@@H]2c3cc4c(cc3[C@H](O)[C@H]3COC(=O)[C@H]23)OCO4)cc(OC)c1OC` [PODOFILOX] are less than 0.1 µM, less than 0.1 µM, less than 0.1 µM, less than 0.1 µM and less than 0.1 µM.
As for `N#C/C(=C\c1cccc2ccccc12)Cn1cnnn1`, the IC50 in the test with HepG2 was 7.11 µM; in the test on A549, 5.7 µM; with MDA-MB-231, 31.4 µM; in the test on DU-145 it was 7.36 µM; in the test on SK-N-SH, 16.9 µM.
On the same counts, the results for `Cc1nnnn1C/C(C#N)=C/c1ccc(F)cc1` are 7.29 µM, 6.4 µM, 28.8 µM, 7.19 µM and 20.2 µM.
For the molecule `Cc1ccc(/C=C(\C#N)Cn2cnnn2)cc1`, the IC50 in the test on HepG2 amounted to 6.56 µM; with A549, 7.95 µM; with MDA-MB-231 it was 25.7 µM; in the test with DU-145 it was 7.3 µM; in the test on SK-N-SH, 20.1 µM.
The corresponding values for `COc1ccc(/C=C(\C#N)Cn2cnnn2)cc1` are 27.4 µM, 23.8 µM, 20.3 µM, 19.4 µM and 64.2 µM.
For the molecule `CCOC(=O)/C(=C/c1ccccc1Br)Cn1cnnn1`, the IC50 was determined as 3.33 µM in the test with HepG2; 5.94 µM with A549; 14.8 µM in the test on MDA-MB-231; 7.79 µM in the test on DU-145; 16.3 µM in the test on SK-N-SH.
The corresponding values for `CCOC(=O)/C(=C/c1ccc(Cl)cc1)Cn1cnnn1` are 3 µM, 3.18 µM, 23.9 µM, 8.44 µM and 28.2 µM.
On the same counts, the results for `COC(=O)/C(=C/c1ccc(F)cc1)Cn1cnnn1` are 12.1 µM, 6.9 µM, 15.9 µM, 8.57 µM and 18.3 µM.
On to `COC(=O)/C(=C/c1ccccc1)Cn1cnnn1`, for which the IC50 came out at 10.7 µM with HepG2; 7.91 µM in the test with A549; 16.4 µM in the test with MDA-MB-231; 9.02 µM with DU-145; 31.6 µM in the test on SK-N-SH.
On to `CCOC(=O)/C(=C/c1ccc(Br)cc1)Cn1cnnn1`, for which the IC50 stood at 4.89 µM in the test on HepG2; 4.78 µM with A549; 18.9 µM in the test on MDA-MB-231; 5.5 µM in the test on DU-145; 27.3 µM with SK-N-SH.
On to `Cc1nnnn1C/C(C#N)=C/c1cccc2ccccc12`, for which the IC50 is 2.6 µM in the test with HepG2; 2.95 µM with A549; 14.1 µM with MDA-MB-231; 5.76 µM with DU-145; 13.7 µM in the test with SK-N-SH. Besides, in the test on Calf thymus DNA [1], the Kb was 0.75 ×10⁵ /M. Besides, the result in the test with Calf thymus DNA [2] was Active.
`COC(=O)/C(=C/c1ccc(OC)cc1)Cn1cnnn1`: the IC50 with HepG2 was determined as 6.65 µM; in the test on A549, 3.83 µM; in the test on MDA-MB-231 it was 21 µM; in the test with DU-145, 5.6 µM; in the test with SK-N-SH, 7.9 µM.
On the same counts, the results for `COC(=O)/C(=C/c1ccc(C)cc1)Cn1cnnn1` are 10.7 µM, 16 µM, 62.6 µM, 8.42 µM and 71.7 µM.
The corresponding values for `COC(=O)/C(=C/c1ccccc1[N+](=O)[O-])Cn1cnnn1` are 4.33 µM, 6.88 µM, 43.7 µM, 10.2 µM and 19.8 µM.
On the same counts, the results for `COC(=O)Nc1nc2cc(C(=O)c3cccs3)ccc2[nH]1` [NOCODAZOLE] are less than 0.1 µM, less than 0.1 µM, less than 0.1 µM, less than 0.1 µM and less than 0.1 µM.
